Values of other authors in US7759335B2, “Cannabinoid receptor antagonists/inverse agonists useful for treating metabolic disorders, including obesity and diabetes” (Jenrm Discovery, Inc., priority 2008, dated 2010).

Settings: patients with type 2 diabetes not treated with other anti-diabetic medications; after six months of treatment; baseline value 7.9; placebo reduction 0.3%

## Cc1c(C(=O)NN2CCCCC2)nn(-c2ccc(Cl)cc2Cl)c1-c1ccc(Cl)cc1 [rimonabant]
  HbA1c levels lowered: 0.8%
